Experimental data: US20120028988A1, “USE OF PYRIDAZINONE COMPOUND FOR CONTROL OF HARMFUL ARTHROPOD PESTS” (SUMITOMO CHEMICAL COMPANY, LIMITED, priority 2009, published 2012)

Tests used:
[1] = test system: Spodoptera litura; assay: whole plant or invertebrate; format: in vivo; conditions: 144 h, 500 ppm active ingredient, 20 mL/cup sprayed on Brassicae oleracea, fourth-stage larvae, 25° C., after 6 days, read-out: mortality of the insects
Method: (§1) The preparation of the present composition obtained by Preparation Example 14 was diluted with water so as to have a concentration of active ingredient of 500 ppm, to prepare a drug solution for test.
The drug solution for test was sprayed at a rate of 20 mL/cup on Brassicae oleracea at the 5 to 6 leaf stages planted in a polyethylene cup. After the drug solution dried, 10 fourth-stage larvae of Spodoptera litura were released. Brassicae oleracea at the 5 to 6 leaf stage planted in this polyethylene cup was covered with an another polyethylene cup (volume of 400 mL). This was stored at 25° C., and the number of surviving insects was counted after 6 days, then the mortality of the insects was calculated by the following equation.
(§2) Mortality of Insects (%)=(Number of Dead Insects/Number of Test Insects)×100

[2] = test system: Plutella xylostella; assay: whole plant or invertebrate; format: in vivo; conditions: 120 h, 500 ppm active ingredient, 20 mL/cup sprayed on Brassicae oleracea, second-stage larvae, 25° C., after 5 days, read-out: mortality of the insects
Method: as §1
The drug solution for test was sprayed at a rate of 20 mL/cup on Brassicae oleracea at the 3 leaf stage planted in a polyethylene cup. After the drug solution dried, leaves and stems were cut out and placed in a 50 mL cup. 5 second-stage larvae of Plutella xylostella were released there, and the lid was closed. This cup was stored at 25° C., and the number of surviving insects was counted after 5 days, and the mortality of the insects was calculated by the following equation.
as §2

[3] = test system: Frankliniella occidentalis; assay: Test Example 10: spray on cucumber, Frankliniella occidentalis larvae on cut leaves, preventive value; format: in vivo; conditions: 500 ppm active ingredient, 10 mL/cup sprayed on cucumber; larvae on cut first true leaves; after 7 days
Method: The drug solution for test was sprayed at a rate of 10 mL/cup on cucumber at the second true leaf-expansion stage planted in a polyethylene cup. After the drug solution dried, the first true leaves were cut out and placed in a polyethylene cup, then 20 larvae of Frankliniella occidentalis were released, and the lid was closed. After 7 days, the number of surviving larvae on the leaves of cucumber was investigated, and the preventive value was calculated by the following equation. Preventive Value (%)={1−(Cb×Tai)/(Cai×Tb)}×100 Here, the letters in the equation represent the following meaning. Cb: Number of Insects in Untreated Area Before Treatment Cai: Number of Insects in Untreated Area at Observation Tb: Number of Insects in Treated Area Before Treatment Tai: Number of Insects in Treated Area at Observation

[4] = test system: Blattalla germanica; assay: Test Example 6: treated filter paper with sucrose, Blattalla germanica male adults, mortality index; format: in vivo; conditions: 500 ppm active ingredient, 0.7 mL on filter paper with sucrose; 2 male adults; after 6 days
Method: as §1
A filter paper with a diameter of 5.5 cm was placed in the bottom of a polyethylene cup, then 0.7 mL of the above drug solution for test was added dropwise on the filter paper, and 30 mg of sucrose was uniformly added as a feed. 2 male adults of Blattalla germanica were released in the polyethylene cup, and the lid was closed. The number of dead insects was calculated after 6 days.
The mortality was calculated by the following equation and was evaluated by the indexes of 4: mortality 100%, 2:50%, and 0:0%.
Mortality (%)=(Number of Dead Insects/Number of Test Insects)×100

Row | melting point | Structure (SMILES) | further results
1 | 225 to 226 °C | CCc1cc(CC)c(-c2c(O)c(C)nn(C)c2=O)c(CC)c1Cl [I-a-49, 4-(3-chloro-2,4,6-triethylphenyl)-5-hydroxy-2,6-dimethyl-3(2H)-pyridazinone] | 
2 | 225 to 226 °C | CCc1cc(CC)c(-c2c(O)c(C)nn(C)c2=O)c(CC)c1Br [I-a-50, 4-(3-bromo-2,4,6-triethylphenyl)-5-hydroxy-2,6-dimethyl-3(2H)-pyridazinone] | 
3 | 248 to 250 °C | CCc1cc(C)c(-c2ccc(Cl)cc2)c(CC)c1-c1c(O)c(C)nn(C)c1=O [I-a-48, 4-[3-(4-chlorophenyl)-2,6-diethyl-4-methylphenyl)-5-hydroxy-2,6-dimethyl-3(2H)-pyridazinone] | 
4 | 266 to 267 °C | CCc1c(Cl)c(CC)c(-c2c(O)c(C)nn(C)c2=O)c(CC)c1Cl [I-a-71, 4-(3,5-dichloro-2,4,6-triethylphenyl)-5-hydroxy-2,6-dimethyl-3(2H)-pyridazinone] | 
5 | 235 to 236 °C | CCc1cc(C)c(Br)c(CC)c1-c1c(O)c(C)nn(C)c1=O [I-a-47, 4-(3-bromo-2,6-diethyl-4-methylphenyl)-5-hydroxy-2,6-dimethyl-3(2H)-pyridazinone] | 
6 | 217 to 219 °C | CCc1cc(CC)c(-c2c(O)c(C)nn(C)c2=O)c(CC)c1I [I-a-72, 5-hydroxy-2,6-dimethyl-4-(2,4,6-triethyl-3-iodophenyl)-3(2H)-pyridazinone] | 
7 | 193 to 195 °C | CCc1cc(C)c(F)c(CC)c1-c1c(O)c(C)nn(C)c1=O [I-a-74, 4-(2,6-diethyl-3-fluoro-4-methylphenyl)-5-hydroxy-2,6-dimethyl-3(2H)-pyridazinone] | 

Continued, compound first:

Row | Structure (SMILES) | melting point | further results
8 | Cc1ccc(-c2ccc(Cl)cc2)cc1-c1c(O)cnn(C)c1=O [I-a-59, 4-[5-(4-chlorophenyl)-2-methylphenyl]-5-hydroxy-2-methyl-3(2H)-pyridazinone] |  | mortality at 500 ppm [1]: ≥ 80%; mortality at 500 ppm [2]: ≥ 80%
9 | C#Cc1cc(C)cc(C)c1-c1c(O)c(C)nn(C)c1=O [I-a-44, 4-(2-ethynyl-4,6-dimethylphenyl)-5-hydroxy-2,6-dimethyl-3(2H)-pyridazinone] | 179 to 181 °C | 
10 | CCc1cc(C)c(Br)c(CC)c1-c1c(OC(=O)OC)c(C)nn(C)c1=O [I-b-50, 4-(3-bromo-2,6-diethyl-4-methylphenyl)-5-methoxycarbonyloxy-2,6-dimethyl-3(2H)-pyridazinone] | 113 to 115 °C | 
11 | Cc1ccc(-c2ccc(Cl)cc2)cc1-c1c(O)c(C)nn(C)c1=O [I-a-40] |  | preventive value [3]: ≥ 90%
12 | Cc1ccc(Br)cc1-c1c(O)c(C)nn(C)c1=O [I-a-45, 4-(5-bromo-2-methylphenyl)-5-hydroxy-2,6-dimethyl-3(2H)-pyridazinone] | 217 to 218 °C | 
13 | CCc1ccccc1-c1c(OC(=O)c2ccccc2)cnn(C)c1=O [I-b-1, 5-benzoyloxy-4-(2-ethylphenyl)-2-methyl-3(2H)-pyridazinone] |  | index (mortality) [4]: 4 (mortality 100%)
14 | Cc1ccc(-c2ccc(F)cc2)cc1-c1c(O)c(C)nn(C)c1=O [I-a-46, 4-[5-(4-fluorophenyl)-2-methylphenyl]-5-hydroxy-2,6-dimethyl-3(2 H)-pyridazinone] |  | mortality at 500 ppm [2]: ≥ 80%
